From patent US20090215884A1, “METHOD FOR WOUND HEALING” (priority 2005, published 2009)

Tested on: MMP-2
Assay: Gelatin zymography of FPCL conditioned medium
Format: cell-based, human
Conditions: PEP005 0.01-0.1 μg/ml
Source text: The ability of dermal fibroblasts to remodel/reorganize their ECM environment in the presence of PEP005 was examined by fibroblast populated collagen lattices (FPCLs), according to Cook et al (2000). Following trypsinization, dermal fibroblasts were suspended in Fibroblast-Serum Containing Medium, containing 10% gelatinase-free, fetal calf serum (prepared using a gelatin-A Sepharose column, GE Healthcare Ltd., Buckinghamshire, U.K.), to remove endogenous MMP-2 and MMP-9 activity. […] The degree of ECM reorganization/lattice contraction was quantified from three separate lattice diameter measurements performed on each of the three replicate samples, at days 1, 2, 3, 4, 5, 6, 7, 10 and 14, after initial fabrication. […]
To determine the relative amounts of pro- and active MMP species produced by the cells in the FPCL systems, gelatin zymography was employed, according to Cook et al (2000). Equal volumes (15 μl) of FPCL conditioned medium were subjected to sodium dodecyl sulphate-polyacrylamide gel electrophoresis (SDS-PAGE), on pre-cast 10% gelatin zymography gels (Ready Gel 10% Gelatin Zymogram Gels, Bio-Rad Laboratories Ltd., Hertfordshire, U.K.), incorporated into a Mini-Protean 3 Gel Electrophoresis System (Bio-Rad Laboratories Ltd.), at 15 mA for 4-5 h. […]

## C/C=C(/C)C(=O)O[C@H]1C(C)=C[C@]23C(=O)[C@@H](C=C(CO)[C@@H](O)[C@]12O)[C@H]1[C@@H](C[C@H]3C)C1(C)C [PEP005, ingenol-3-angelate]
  Pro and active MMP-2 levels: observed to increase
